Source: ChEMBL document CHEMBL5303573, “Mapping human microbiome drug metabolism by gut bacteria and their genes” (Nature, 2019)

Assay: The drug is tested on Eubacterium rectale strain: ATCC33656 for biotransformation. The drug concentrations were measured before and after a 12-h incubation by liquid-chromatography-coupled mass spectrometry (LC–MS)
Settings: agathobacter rectalis, 2 µM

SMILES | Bacterial Biotransformation
C#C[C@]1(OC(C)=O)CC[C@H]2[C@@H]3CCC4=CC(=O)CC[C@@H]4[C@H]3CC[C@@]21C [NORETHINDRONE ACETATE] | Compound metabolized
COc1ccccc1N1CCN(CC(O)COc2cccc3ccccc23)CC1 (centres undefined) [NAFTOPIDIL] | Compound NOT metabolized
COCCCC/C(=N\OCCN)c1ccc(C(F)(F)F)cc1.O=C(O)/C=C\C(=O)O [FLUVOXAMINE MALEATE] | Compound NOT metabolized

Assay: The drug is tested on Clostridium symbiosum strain: ATCC14940 for biotransformation. The drug concentrations were measured before and after a 12-h incubation by liquid-chromatography-coupled mass spectrometry (LC–MS)
Settings: 2 µM

SMILES | Bacterial Biotransformation
C#C[C@]1(OC(C)=O)CC[C@H]2[C@@H]3CCC4=CC(=O)CC[C@@H]4[C@H]3CC[C@@]21C [NORETHINDRONE ACETATE] | Compound metabolized
COc1ccccc1N1CCN(CC(O)COc2cccc3ccccc23)CC1 (centres undefined) [NAFTOPIDIL] | Compound NOT metabolized
COCCCC/C(=N\OCCN)c1ccc(C(F)(F)F)cc1.O=C(O)/C=C\C(=O)O [FLUVOXAMINE MALEATE] | Compound NOT metabolized

Assay: The drug is tested on Subdoligranulum variabile strain: DSM15176 for biotransformation. The drug concentrations were measured before and after a 12-h incubation by liquid-chromatography-coupled mass spectrometry (LC–MS)
Settings: 2 µM

SMILES | Bacterial Biotransformation
C#C[C@]1(OC(C)=O)CC[C@H]2[C@@H]3CCC4=CC(=O)CC[C@@H]4[C@H]3CC[C@@]21C [NORETHINDRONE ACETATE] | Compound NOT metabolized
COc1ccccc1N1CCN(CC(O)COc2cccc3ccccc23)CC1 (centres undefined) [NAFTOPIDIL] | Compound NOT metabolized
COCCCC/C(=N\OCCN)c1ccc(C(F)(F)F)cc1.O=C(O)/C=C\C(=O)O [FLUVOXAMINE MALEATE] | Compound NOT metabolized

Assay: The drug is tested on Alistipes indistinctus strain: DSM22520 for biotransformation. The drug concentrations were measured before and after a 12-h incubation by liquid-chromatography-coupled mass spectrometry (LC–MS)
Settings: 2 µM

SMILES | Bacterial Biotransformation
C#C[C@]1(OC(C)=O)CC[C@H]2[C@@H]3CCC4=CC(=O)CC[C@@H]4[C@H]3CC[C@@]21C [NORETHINDRONE ACETATE] | Compound metabolized
COc1ccccc1N1CCN(CC(O)COc2cccc3ccccc23)CC1 (centres undefined) [NAFTOPIDIL] | Compound NOT metabolized
COCCCC/C(=N\OCCN)c1ccc(C(F)(F)F)cc1.O=C(O)/C=C\C(=O)O [FLUVOXAMINE MALEATE] | Compound NOT metabolized

Assay: The drug is tested on Bacteroides pectinophilus strain: ATCC43243 for biotransformation. The drug concentrations were measured before and after a 12-h incubation by liquid-chromatography-coupled mass spectrometry (LC–MS)
Settings: 2 µM

SMILES | Bacterial Biotransformation
COc1ccccc1N1CCN(CC(O)COc2cccc3ccccc23)CC1 (centres undefined) [NAFTOPIDIL] | Compound NOT metabolized
COCCCC/C(=N\OCCN)c1ccc(C(F)(F)F)cc1.O=C(O)/C=C\C(=O)O [FLUVOXAMINE MALEATE] | Compound metabolized

Assay: The drug is tested on Clostridium asparagiforme strain: DSM15981 for biotransformation. The drug concentrations were measured before and after a 12-h incubation by liquid-chromatography-coupled mass spectrometry (LC–MS)
Assay type: ADME
Design: dose 2 uM, timepoint 0 vs 12 hours
Settings: enterocloster asparagiformis, 2 µM

SMILES | Bacterial Biotransformation
C#C[C@]1(OC(C)=O)CC[C@H]2[C@@H]3CCC4=CC(=O)CC[C@@H]4[C@H]3CC[C@@]21C [NORETHINDRONE ACETATE] | Compound metabolized
COc1ccccc1N1CCN(CC(O)COc2cccc3ccccc23)CC1 (centres undefined) [NAFTOPIDIL] | Compound NOT metabolized
COCCCC/C(=N\OCCN)c1ccc(C(F)(F)F)cc1.O=C(O)/C=C\C(=O)O [FLUVOXAMINE MALEATE] | Compound NOT metabolized

Assay: The drug is tested on Edwardsiella tarda strain: ATCC23685 for biotransformation. The drug concentrations were measured before and after a 12-h incubation by liquid-chromatography-coupled mass spectrometry (LC–MS)
Settings: 2 µM

SMILES | Bacterial Biotransformation
C#C[C@]1(OC(C)=O)CC[C@H]2[C@@H]3CCC4=CC(=O)CC[C@@H]4[C@H]3CC[C@@]21C [NORETHINDRONE ACETATE] | Compound NOT metabolized
COc1ccccc1N1CCN(CC(O)COc2cccc3ccccc23)CC1 (centres undefined) [NAFTOPIDIL] | Compound NOT metabolized
COCCCC/C(=N\OCCN)c1ccc(C(F)(F)F)cc1.O=C(O)/C=C\C(=O)O [FLUVOXAMINE MALEATE] | Compound NOT metabolized

Settings: enterocloster bolteae, 12 h, 2 µM
Description: The drug is tested on Clostridium bolteae strain: ATCCBAA-613 for biotransformation. The drug concentrations were measured before and after a 12-h incubation by liquid-chromatography-coupled mass spectrometry (LC–MS)

SMILES | Bacterial Biotransformation
C#C[C@]1(OC(C)=O)CC[C@H]2[C@@H]3CCC4=CC(=O)CC[C@@H]4[C@H]3CC[C@@]21C [NORETHINDRONE ACETATE] | Compound metabolized
COc1ccccc1N1CCN(CC(O)COc2cccc3ccccc23)CC1 (centres undefined) [NAFTOPIDIL] | Compound NOT metabolized

Assay: The drug is tested on Bacteroides coprophilus strain: DSM18228 for biotransformation. The drug concentrations were measured before and after a 12-h incubation by liquid-chromatography-coupled mass spectrometry (LC–MS)
Settings: 2 µM

SMILES | Bacterial Biotransformation
C#C[C@]1(OC(C)=O)CC[C@H]2[C@@H]3CCC4=CC(=O)CC[C@@H]4[C@H]3CC[C@@]21C [NORETHINDRONE ACETATE] | Compound metabolized
COc1ccccc1N1CCN(CC(O)COc2cccc3ccccc23)CC1 (centres undefined) [NAFTOPIDIL] | Compound NOT metabolized
COCCCC/C(=N\OCCN)c1ccc(C(F)(F)F)cc1.O=C(O)/C=C\C(=O)O [FLUVOXAMINE MALEATE] | Compound metabolized

Assay: The drug is tested on Parabacteroides merdae strain: ATCC43184 for biotransformation. The drug concentrations were measured before and after a 12-h incubation by liquid-chromatography-coupled mass spectrometry (LC–MS)
Settings: 2 µM

SMILES | Bacterial Biotransformation
C#C[C@]1(OC(C)=O)CC[C@H]2[C@@H]3CCC4=CC(=O)CC[C@@H]4[C@H]3CC[C@@]21C [NORETHINDRONE ACETATE] | Compound metabolized
COc1ccccc1N1CCN(CC(O)COc2cccc3ccccc23)CC1 (centres undefined) [NAFTOPIDIL] | Compound NOT metabolized

Assay: The drug is tested on Ruminococcus torques strain: ATCC27756 for biotransformation. The drug concentrations were measured before and after a 12-h incubation by liquid-chromatography-coupled mass spectrometry (LC–MS)
Assay type: ADME
Design: dose 2 uM, timepoint 0 vs 12 hours
Settings: 2 µM

SMILES | Bacterial Biotransformation
C#C[C@]1(OC(C)=O)CC[C@H]2[C@@H]3CCC4=CC(=O)CC[C@@H]4[C@H]3CC[C@@]21C [NORETHINDRONE ACETATE] | Compound metabolized
COc1ccccc1N1CCN(CC(O)COc2cccc3ccccc23)CC1 (centres undefined) [NAFTOPIDIL] | Compound NOT metabolized
COCCCC/C(=N\OCCN)c1ccc(C(F)(F)F)cc1.O=C(O)/C=C\C(=O)O [FLUVOXAMINE MALEATE] | Compound NOT metabolized

Settings: bacteroides stercoris, 12 h, 2 µM
Description: The drug is tested on Bacteroides stercoris strain: ATCC43183 for biotransformation. The drug concentrations were measured before and after a 12-h incubation by liquid-chromatography-coupled mass spectrometry (LC–MS)

SMILES | Bacterial Biotransformation
C#C[C@]1(OC(C)=O)CC[C@H]2[C@@H]3CCC4=CC(=O)CC[C@@H]4[C@H]3CC[C@@]21C [NORETHINDRONE ACETATE] | Compound metabolized
COc1ccccc1N1CCN(CC(O)COc2cccc3ccccc23)CC1 (centres undefined) [NAFTOPIDIL] | Compound NOT metabolized

Assay: The drug is tested on Bacteroides ovatus strain: ATCC8483 for biotransformation. The drug concentrations were measured before and after a 12-h incubation by liquid-chromatography-coupled mass spectrometry (LC–MS)
Settings: 2 µM

SMILES | Bacterial Biotransformation
C#C[C@]1(OC(C)=O)CC[C@H]2[C@@H]3CCC4=CC(=O)CC[C@@H]4[C@H]3CC[C@@]21C [NORETHINDRONE ACETATE] | Compound metabolized
COc1ccccc1N1CCN(CC(O)COc2cccc3ccccc23)CC1 (centres undefined) [NAFTOPIDIL] | Compound NOT metabolized
COCCCC/C(=N\OCCN)c1ccc(C(F)(F)F)cc1.O=C(O)/C=C\C(=O)O [FLUVOXAMINE MALEATE] | Compound metabolized

Assay: The drug is tested on Bacteroides fragilis strain: ATCC43859 for biotransformation. The drug concentrations were measured before and after a 12-h incubation by liquid-chromatography-coupled mass spectrometry (LC–MS)
Settings: 2 µM

SMILES | Bacterial Biotransformation
C#C[C@]1(OC(C)=O)CC[C@H]2[C@@H]3CCC4=CC(=O)CC[C@@H]4[C@H]3CC[C@@]21C [NORETHINDRONE ACETATE] | Compound metabolized
COCCCC/C(=N\OCCN)c1ccc(C(F)(F)F)cc1.O=C(O)/C=C\C(=O)O [FLUVOXAMINE MALEATE] | Compound NOT metabolized

Assay: The drug is tested on Bacteroides fragilis strain: HMW610 for biotransformation. The drug concentrations were measured before and after a 12-h incubation by liquid-chromatography-coupled mass spectrometry (LC–MS)
Settings: 2 µM

SMILES | Bacterial Biotransformation
C#C[C@]1(OC(C)=O)CC[C@H]2[C@@H]3CCC4=CC(=O)CC[C@@H]4[C@H]3CC[C@@]21C [NORETHINDRONE ACETATE] | Compound metabolized
COc1ccccc1N1CCN(CC(O)COc2cccc3ccccc23)CC1 (centres undefined) [NAFTOPIDIL] | Compound metabolized

Assay: The drug is tested on Dorea formicigenerans strain: ATCC27755 for biotransformation. The drug concentrations were measured before and after a 12-h incubation by liquid-chromatography-coupled mass spectrometry (LC–MS)
Settings: 2 µM

SMILES | Bacterial Biotransformation
C#C[C@]1(OC(C)=O)CC[C@H]2[C@@H]3CCC4=CC(=O)CC[C@@H]4[C@H]3CC[C@@]21C [NORETHINDRONE ACETATE] | Compound NOT metabolized
COc1ccccc1N1CCN(CC(O)COc2cccc3ccccc23)CC1 (centres undefined) [NAFTOPIDIL] | Compound NOT metabolized
COCCCC/C(=N\OCCN)c1ccc(C(F)(F)F)cc1.O=C(O)/C=C\C(=O)O [FLUVOXAMINE MALEATE] | Compound NOT metabolized

Assay: The drug is tested on Collinsella intestinalis strain: DSM13280 for biotransformation. The drug concentrations were measured before and after a 12-h incubation by liquid-chromatography-coupled mass spectrometry (LC–MS)
Settings: 2 µM

SMILES | Bacterial Biotransformation
C#C[C@]1(OC(C)=O)CC[C@H]2[C@@H]3CCC4=CC(=O)CC[C@@H]4[C@H]3CC[C@@]21C [NORETHINDRONE ACETATE] | Compound metabolized
COc1ccccc1N1CCN(CC(O)COc2cccc3ccccc23)CC1 (centres undefined) [NAFTOPIDIL] | Compound NOT metabolized

Assay: The drug is tested on Enterobacter cancerogenus strain: ATCC35316 for biotransformation. The drug concentrations were measured before and after a 12-h incubation by liquid-chromatography-coupled mass spectrometry (LC–MS)
Settings: 2 µM

SMILES | Bacterial Biotransformation
COc1ccccc1N1CCN(CC(O)COc2cccc3ccccc23)CC1 (centres undefined) [NAFTOPIDIL] | Compound NOT metabolized

Assay: The drug is tested on Coprococcus comes strain: ATCC27758 for biotransformation. The drug concentrations were measured before and after a 12-h incubation by liquid-chromatography-coupled mass spectrometry (LC–MS)
Assay type: ADME
Design: dose 2 uM, timepoint 0 vs 12 hours
Settings: 2 µM

SMILES | Bacterial Biotransformation
C#C[C@]1(OC(C)=O)CC[C@H]2[C@@H]3CCC4=CC(=O)CC[C@@H]4[C@H]3CC[C@@]21C [NORETHINDRONE ACETATE] | Compound NOT metabolized

Assay: The drug is tested on Blautia luti strain: DSM14534 for biotransformation. The drug concentrations were measured before and after a 12-h incubation by liquid-chromatography-coupled mass spectrometry (LC–MS)
Assay type: ADME
Design: dose 2 uM, timepoint 0 vs 12 hours
Settings: 2 µM

SMILES | Bacterial Biotransformation
C#C[C@]1(OC(C)=O)CC[C@H]2[C@@H]3CCC4=CC(=O)CC[C@@H]4[C@H]3CC[C@@]21C [NORETHINDRONE ACETATE] | Compound metabolized
COc1ccccc1N1CCN(CC(O)COc2cccc3ccccc23)CC1 (centres undefined) [NAFTOPIDIL] | Compound NOT metabolized
COCCCC/C(=N\OCCN)c1ccc(C(F)(F)F)cc1.O=C(O)/C=C\C(=O)O [FLUVOXAMINE MALEATE] | Compound NOT metabolized
